SMILES strings stand for the structures.

Sequence of Ba/F3 HER2-YVMA cells (HER2-A775_G776insYVMA) (P04626 with tags, fused parts or gaps DUP772-775): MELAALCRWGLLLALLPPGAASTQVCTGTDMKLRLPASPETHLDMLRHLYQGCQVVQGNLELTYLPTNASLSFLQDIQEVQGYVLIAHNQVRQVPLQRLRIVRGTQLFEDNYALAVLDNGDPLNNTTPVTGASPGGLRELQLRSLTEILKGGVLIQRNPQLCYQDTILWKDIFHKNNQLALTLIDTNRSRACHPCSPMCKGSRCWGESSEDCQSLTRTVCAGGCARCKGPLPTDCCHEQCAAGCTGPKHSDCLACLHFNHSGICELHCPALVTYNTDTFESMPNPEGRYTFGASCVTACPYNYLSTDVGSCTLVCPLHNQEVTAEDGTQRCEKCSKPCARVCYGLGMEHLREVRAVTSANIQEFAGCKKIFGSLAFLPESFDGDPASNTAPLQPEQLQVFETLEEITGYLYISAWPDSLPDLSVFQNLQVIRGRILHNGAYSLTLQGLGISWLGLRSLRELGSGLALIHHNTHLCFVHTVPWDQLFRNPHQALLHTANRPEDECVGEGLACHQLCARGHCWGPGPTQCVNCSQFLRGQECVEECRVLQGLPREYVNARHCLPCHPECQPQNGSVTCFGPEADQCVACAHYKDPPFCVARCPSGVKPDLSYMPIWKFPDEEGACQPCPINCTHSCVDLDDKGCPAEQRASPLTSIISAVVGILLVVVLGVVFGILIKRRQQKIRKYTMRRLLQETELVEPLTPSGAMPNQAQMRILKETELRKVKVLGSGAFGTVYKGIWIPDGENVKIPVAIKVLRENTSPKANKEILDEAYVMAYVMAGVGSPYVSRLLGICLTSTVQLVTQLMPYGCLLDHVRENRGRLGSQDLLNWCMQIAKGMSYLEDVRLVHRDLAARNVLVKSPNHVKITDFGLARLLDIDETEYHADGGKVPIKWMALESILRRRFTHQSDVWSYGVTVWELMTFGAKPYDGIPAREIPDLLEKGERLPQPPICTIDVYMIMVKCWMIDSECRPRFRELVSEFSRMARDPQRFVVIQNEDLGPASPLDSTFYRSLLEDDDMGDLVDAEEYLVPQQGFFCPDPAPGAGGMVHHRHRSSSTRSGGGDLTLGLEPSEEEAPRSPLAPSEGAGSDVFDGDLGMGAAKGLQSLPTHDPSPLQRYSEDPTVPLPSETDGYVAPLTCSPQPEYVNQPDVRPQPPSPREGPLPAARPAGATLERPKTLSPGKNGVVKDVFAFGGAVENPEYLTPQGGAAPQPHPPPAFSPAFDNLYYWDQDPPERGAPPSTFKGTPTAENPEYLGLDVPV

One experiment has as its system A431 cells (amplification of the wild-type EGFR gene), phospho-ERK Thr202/Tyr204. Kind of experiment: Cellular phosphorylation assay, pERK (phospho-ERK Thr202/Tyr204 AlphaLISA) in A431. Type of experiment: cell-based. To be noted: Homo sapiens, A-431, compound incubated for 5 hours. Here is the method:
(§1) Besides Ba/F3s, two commercially available cell lines were also used. NCI-H1781 is a HER2 exon20 insertion cell line bearing HER2-A775_G776insV-G776C. A431 bears amplification of the wild-type EGFR gene.
(§2) Ba/F3 cells were plated at 50,000 cells/well (40 μL), or NCI-H1781 cells or A431 cells were plated at 12,500 cells/well (40 μL), in a 384-well plate for 1 day. Test compounds (40 nL) were then added in a 3-fold dilution series using the TECAN EV0200 liquid handler and incubated for 5 hours. Only for pEGFR analysis in A431, the cells were briefly stimulated with EGF (30 ng/mL) for 15 minutes. Media were removed using Apricot Designs. Phosphoproteins were analyzed using the phospho-EGFR Tyr1068 AlphaLISA kit (“pEGFR”; PerkinElmer #ALSU-PEGFR-B10K;) phospho-ERK Thr202/Tyr204 AlphaLISA kit (“pERK”; PerkinElmer #ALSU-PERK-A10K) or the phospho-ErbB2 Tyr1221/1222 AlphaLISA kit (“pHER2”; PerkinElmer #ALSU-PEB2-A10K;) according to the manufacturer's instructions. Briefly, cells were lysed with lysis buffer (10 μL) containing protease-inhibitor and phosphatase-inhibitor cocktails. The lysates were transferred into a new optical plate, incubated with the acceptor mix (5 μL) for 1.5-2 hours at room temperature in darkness, and then mixed with the donor mix (5 μL) overnight in darkness. Fluorescence was measured on a plate reader using the appropriate AlphaLISA settings. Half-maximal inhibitory concentration (IC50) was calculated from percent inhibition and inhibitor concentration using four-parameter logistic regression. […]
A general note: Bead proximity is the source of the signal in Alpha formats.
As for `C=CC(=O)N1CCN(c2ncc3ncnc(Nc4ccc(Oc5ccn6ncnc6c5)c(C)c4F)c3n2)[C@H](C)[C@@H]1C` (relative stereo) [Example 40], the IC50 is below 100 nM.
In turn, `C=CC(=O)N1CCN(c2ncc3ncnc(Nc4ccc(Oc5ccn6ncnc6c5)c(C)c4F)c3n2)C[C@H]1C` [Example 32] came in with an IC50 of 500 to 1000 nM.
`C=CC(=O)N1CCC(c2ncc3ncnc(Nc4cc(C)c(Oc5ccn6ncnc6c5)cc4F)c3n2)=C[C@@H]1C` [Example 58] gave an IC50 of at least 1000 nM.
`C=CC(=O)N1CCN(c2ncc3ncnc(Nc4ccc(Oc5ccn6ncnc6n5)c(C)c4F)c3n2)C[C@H]1C` [Example 65]: the IC50 is at least 1000 nM.
On the same count and under the same terms, for `C=CC(=O)N1CCN(c2ncc3ncnc(Nc4ccc(Oc5ccc6c(c5)ncn6C)cc4F)c3n2)CC1` [Example 67] the value was 500 to 1000 nM.
On to `C=CC(=O)N1CCN(c2ncc3ncnc(Nc4ccc(Oc5ccc6c(c5)ncn6C)c(C)c4F)c3n2)C[C@H]1C` [Example 68], for which the IC50 was in the range of 100 to 500 nM.
Compound `Cc1c(Oc2ccn3ncnc3c2)ccc(Nc2ncnc3cnc(C4=CCN(C(=O)/C=C/CN(C)C)CC4)nc23)c1F` [Example 69] yielded an IC50 of 100 to 500 nM.
In turn, `C=CC(=O)N1CC=C(c2ccc3ncnc(Nc4ccc(Oc5ccn6ccnc6c5)c(C)c4)c3n2)CC1` [Example 70] returned a half-maximal inhibitory concentration (IC50) of 100 to 500 nM.
Same read-out and setting: for `C=CC(=O)N1CC=C(c2ccc3ncnc(Nc4ccc(Oc5ccc6ccn(C)c6c5)c(C)c4)c3n2)CC1` [Example 71] the value was 100 to 500 nM; for `C=CC(=O)N1CC=C(c2ccc3ncnc(Nc4ccc(Oc5ccn6nccc6c5)c(C)c4)c3n2)CC1` [Example 72], 100 to 500 nM; for `C=CC(=O)N1CCN(c2ncc3ncnc(Nc4ccc(Oc5cc6ncnn6cn5)c(C)c4F)c3n2)C[C@H]1C` [Example 73], 100 to 500 nM.
`C=CC(=O)N1CCN(c2ncc3ncnc(Nc4ccc(Oc5ccc6c(c5)ncn6C)c(C)c4F)c3n2)CC1` [Example 74] had an IC50 below 100 nM.
On the same count and under the same terms, for `C=CC(=O)N1CCN(c2ccc3ncnc(Nc4ccc(Oc5ccn6c(C)cnc6c5)c(C)c4F)c3c2F)C[C@H]1C` [Example 75] the value was 100 to 500 nM.
`C=CC(=O)N1CC=C(c2ncc3ncnc(Nc4ccc(Oc5ccn6ncnc6c5)c(C)c4F)c3n2)C[C@H]1C` [Example 80] showed an IC50 of 500 to 1000 nM.
Still for that read-out and setting: for `C=CC(=O)N1CCN(c2ncc3ncnc(Nc4ccc(Oc5ccn6ncnc6c5)c(C)c4F)c3n2)C[C@H]1CF` [Example 81] the value was 100 to 500 nM.

The target in a further experiment is T1, wild-type EGFR (A431 cells) (Homo sapiens, UniProt P00533).
T1 construct: A431 bears amplification of the wild-type EGFR gene; endogenous in cells; host or cells: A431
T1 sequence (P00533 25-1210): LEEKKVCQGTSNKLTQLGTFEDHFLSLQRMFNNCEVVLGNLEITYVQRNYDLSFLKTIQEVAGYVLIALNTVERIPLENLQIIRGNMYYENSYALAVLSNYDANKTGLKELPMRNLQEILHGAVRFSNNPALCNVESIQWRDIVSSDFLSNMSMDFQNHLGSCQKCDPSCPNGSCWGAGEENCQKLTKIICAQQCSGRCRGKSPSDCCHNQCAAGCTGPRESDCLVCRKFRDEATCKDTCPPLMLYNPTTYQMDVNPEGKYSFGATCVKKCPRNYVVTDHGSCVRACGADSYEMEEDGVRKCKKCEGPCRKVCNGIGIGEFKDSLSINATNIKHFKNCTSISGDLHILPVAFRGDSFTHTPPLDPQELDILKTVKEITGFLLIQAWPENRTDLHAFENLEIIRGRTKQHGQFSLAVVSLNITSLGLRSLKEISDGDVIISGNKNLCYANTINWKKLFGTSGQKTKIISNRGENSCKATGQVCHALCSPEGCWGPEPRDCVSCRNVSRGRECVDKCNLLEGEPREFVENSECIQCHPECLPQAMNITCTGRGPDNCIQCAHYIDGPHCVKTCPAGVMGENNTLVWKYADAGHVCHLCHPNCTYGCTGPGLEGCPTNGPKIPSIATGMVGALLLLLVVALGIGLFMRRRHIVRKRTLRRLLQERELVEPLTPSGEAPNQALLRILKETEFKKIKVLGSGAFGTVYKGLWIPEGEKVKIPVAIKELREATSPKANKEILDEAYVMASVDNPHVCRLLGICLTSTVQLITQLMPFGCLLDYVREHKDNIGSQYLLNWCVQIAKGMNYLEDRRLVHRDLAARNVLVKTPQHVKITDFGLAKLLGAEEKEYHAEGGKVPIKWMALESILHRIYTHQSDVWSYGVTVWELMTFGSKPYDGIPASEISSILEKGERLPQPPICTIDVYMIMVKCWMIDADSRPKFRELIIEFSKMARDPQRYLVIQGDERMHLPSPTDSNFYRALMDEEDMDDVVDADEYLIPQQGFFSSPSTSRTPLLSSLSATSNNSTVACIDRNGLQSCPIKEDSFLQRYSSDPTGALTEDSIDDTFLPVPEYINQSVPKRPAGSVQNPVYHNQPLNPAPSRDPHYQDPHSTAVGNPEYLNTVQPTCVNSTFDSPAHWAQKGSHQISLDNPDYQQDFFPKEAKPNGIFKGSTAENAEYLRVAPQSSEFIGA
Kind of experiment: Cellular phosphorylation assay, pEGFR (phospho-EGFR Tyr1068 AlphaLISA) in A431. Type of experiment: cell-based. Conditions: compound incubated for 5 hours, EGF (30 ng/mL) for 15 minutes. Here is the method: as §1, §2
`C=CC(=O)N1CCN(c2ncc3ncnc(Nc4ccc(Oc5ccn6ncnc6c5)c(C)c4F)c3n2)[C@H](C)[C@@H]1C` (relative stereo) [Example 40]: the IC50 is below 100 nM.
`C=CC(=O)N1CCC(c2ncc3ncnc(Nc4cc(C)c(Oc5ccn6ncnc6c5)cc4F)c3n2)=C[C@@H]1C` [Example 58] came in with an IC50 of at least 1000 nM.
As for `C=CC(=O)N1CCN(c2ncc3ncnc(Nc4ccc(Oc5ccn6ncnc6n5)c(C)c4F)c3n2)C[C@H]1C` [Example 65], the IC50 is at least 1000 nM.
On the same count and under the same terms, as for `C=CC(=O)N1CCN(c2ncc3ncnc(Nc4ccc(Oc5ccc6c(c5)ncn6C)cc4F)c3n2)CC1` [Example 67], the figure is at least 1000 nM.
Still for that read-out and setting: for `C=CC(=O)N1CCN(c2ncc3ncnc(Nc4ccc(Oc5ccc6c(c5)ncn6C)c(C)c4F)c3n2)C[C@H]1C` [Example 68] the value was 500 to 1000 nM; for `Cc1c(Oc2ccn3ncnc3c2)ccc(Nc2ncnc3cnc(C4=CCN(C(=O)/C=C/CN(C)C)CC4)nc23)c1F` [Example 69], 500 to 1000 nM; for `C=CC(=O)N1CC=C(c2ccc3ncnc(Nc4ccc(Oc5ccn6ccnc6c5)c(C)c4)c3n2)CC1` [Example 70], 100 to 500 nM.
Consider `C=CC(=O)N1CC=C(c2ccc3ncnc(Nc4ccc(Oc5ccc6ccn(C)c6c5)c(C)c4)c3n2)CC1` [Example 71], for which the IC50 was 100 to 500 nM.
As for `C=CC(=O)N1CC=C(c2ccc3ncnc(Nc4ccc(Oc5ccn6nccc6c5)c(C)c4)c3n2)CC1` [Example 72], the IC50 is below 100 nM.
Same read-out and setting: for `C=CC(=O)N1CCN(c2ncc3ncnc(Nc4ccc(Oc5cc6ncnn6cn5)c(C)c4F)c3n2)C[C@H]1C` [Example 73] the value was 100 to 500 nM; for `C=CC(=O)N1CCN(c2ncc3ncnc(Nc4ccc(Oc5ccc6c(c5)ncn6C)c(C)c4F)c3n2)CC1` [Example 74], 100 to 500 nM.
The same measure, in the same setting: for `C=CC(=O)N1CCN(c2ccc3ncnc(Nc4ccc(Oc5ccn6c(C)cnc6c5)c(C)c4F)c3c2F)C[C@H]1C` [Example 75] the value was 500 to 1000 nM; for `C=CC(=O)N1CC=C(c2ncc3ncnc(Nc4ccc(Oc5ccn6ncnc6c5)c(C)c4F)c3n2)C[C@H]1C` [Example 80], at least 1000 nM.
The same measure, in the same setting: for `C=CC(=O)N1CCN(c2ncc3ncnc(Nc4ccc(Oc5ccn6ncnc6c5)c(C)c4F)c3n2)C[C@H]1CF` [Example 81] the value was 100 to 500 nM.

A further experiment addresses Ba/F3 HER2-YVMA cells (HER2-A775_G776insYVMA) (Homo sapiens, UniProt P04626, DUP772-775, cells depend on it). Kind of experiment: Cell proliferation assay (CellTiter-Glo), Ba/F3 HER2-YVMA. It counts as cell-based. Conditions: read-out: Ba/F3 HER2-YVMA cell proliferation IC50. The procedure: The gene encoding HER2-A775_G776insYVMA (“HER2-YVMA”) was synthesized at GeneRay, cloned into the retroviral construct pMSCV-puro (Biovector), and packaged into retroviral particles. The virus was used to infect Ba/F3 cells (RIKEN) at multiplicity of infection=1 or 10 for 1 day. Infected cells were rescued in media (RPMI-1640 with 10% fetal bovine serum and 1% streptomycin and penicillin) supplemented with mouse IL-3 (10 ng/mL) for 2 days, and stable cell lines were selected by IL-3 withdrawal and puromycin (0.8 μg/mL) for 7 days. Monoclones were selected by single-cell dilution in IL-3-free medium containing puromycin ([…]). Transformation of desired genes was confirmed by Sanger sequencing and western blot using the following antibody: HER2 (CST #2242).
(§3) Ba/F3 cells were plated at 1,000 cells/well (40 μL), or NCI-H1781 or A431 cells were plated at 2,000 cells/well (40 μL), in a 384-well plate for 1 day. Test compounds (40 nL) were then added in a 3-fold dilution series using the TECAN EV0200 liquid handler and incubated for 48 hours (“2 days”), 72 hours (“3 days”), or 48 hours followed by renewal of compound solutions and further incubation for 72 hours (“2 days/3 days”). The 72-hour assay was necessary for NCI-H1781 cells, which are slow-growing, and the resupply of fresh compounds on day 3 obviated the potential confounding effects arising from compound degradation in cell media over 72 hours. Plates were equilibrated at room temperature for 15 minutes followed by addition of 40 μL CellTiter-Glo reagent (Promega). Luminescence was measured on a plate reader. Half-maximal inhibitory concentration (IC50) was calculated from percent inhibition and inhibitor concentration using four-parameter logistic regression. […] In these cases, the regression curve was drawn only for the first inflexion to accurately measure on-target growth inhibitory effect.
(§4) Ba/F3, NCI-H1781, and A431 proliferation is driven by the oncogenes in the same way that cancer cell proliferation in humans is driven by the expression of equivalent oncogenes.
On to `C=CC(=O)N1CCN(c2ncc3ncnc(Nc4ccc(Oc5ccn6ncnc6c5)c(C)c4F)c3n2)[C@H](C)[C@@H]1C` (relative stereo) [Example 40], for which the GI50 is below 100 nM.
Take `C=CC(=O)N1CCN(c2ncc3ncnc(Nc4ccc(Oc5ccn6ncnc6c5)c(C)c4F)c3n2)C[C@H]1C` [Example 32]: the GI50 was below 100 nM.
On to `C=CC(=O)N1CCC(c2ncc3ncnc(Nc4cc(C)c(Oc5ccn6ncnc6c5)cc4F)c3n2)=C[C@@H]1C` [Example 58], for which the GI50 was below 100 nM.
As to `C=CC(=O)N1CCN(c2ncc3ncnc(Nc4ccc(Oc5ccn6ncnc6n5)c(C)c4F)c3n2)C[C@H]1C` [Example 65], the GI50 was in the range of 100 to 500 nM.
On the same count and under the same terms, for `C=CC(=O)N1CCN(c2ncc3ncnc(Nc4ccc(Oc5ccc6c(c5)ncn6C)cc4F)c3n2)CC1` [Example 67] the value was below 100 nM; for `C=CC(=O)N1CCN(c2ncc3ncnc(Nc4ccc(Oc5ccc6c(c5)ncn6C)c(C)c4F)c3n2)C[C@H]1C` [Example 68], below 100 nM; for `Cc1c(Oc2ccn3ncnc3c2)ccc(Nc2ncnc3cnc(C4=CCN(C(=O)/C=C/CN(C)C)CC4)nc23)c1F` [Example 69], below 100 nM.
For `C=CC(=O)N1CC=C(c2ccc3ncnc(Nc4ccc(Oc5ccn6ccnc6c5)c(C)c4)c3n2)CC1` [Example 70], the GI50 is below 100 nM.
The same measure, in the same setting: for `C=CC(=O)N1CC=C(c2ccc3ncnc(Nc4ccc(Oc5ccc6ccn(C)c6c5)c(C)c4)c3n2)CC1` [Example 71] the value was 100 to 500 nM; for `C=CC(=O)N1CC=C(c2ccc3ncnc(Nc4ccc(Oc5ccn6nccc6c5)c(C)c4)c3n2)CC1` [Example 72], below 100 nM; for `C=CC(=O)N1CCN(c2ncc3ncnc(Nc4ccc(Oc5cc6ncnn6cn5)c(C)c4F)c3n2)C[C@H]1C` [Example 73], below 100 nM.
`C=CC(=O)N1CCN(c2ncc3ncnc(Nc4ccc(Oc5ccc6c(c5)ncn6C)c(C)c4F)c3n2)CC1` [Example 74]: the GI50 is below 100 nM.
On the same count and under the same terms, as for `C=CC(=O)N1CCN(c2ccc3ncnc(Nc4ccc(Oc5ccn6c(C)cnc6c5)c(C)c4F)c3c2F)C[C@H]1C` [Example 75], the figure is below 100 nM.
Same read-out and setting: as for `C=CC(=O)N1CC=C(c2ncc3ncnc(Nc4ccc(Oc5ccn6ncnc6c5)c(C)c4F)c3n2)C[C@H]1C` [Example 80], the figure is below 100 nM.
Same read-out and setting: for `C=CC(=O)N1CCN(c2ncc3ncnc(Nc4ccc(Oc5ccn6ncnc6c5)c(C)c4F)c3n2)C[C@H]1CF` [Example 81] the value was below 100 nM.

The test system of the next experiment is NCI-H1781 cells (HER2-A775_G776insV-G776C). The experiment in a line: Cell proliferation assay (CellTiter-Glo), NCI-H1781. Type of experiment: cell-based. Conditions: first inflexion of biphasic curve. The procedure: as §1, §3, §4
A general note: In ATP-based viability assays light output follows the ATP content of the culture.
`C=CC(=O)N1CCN(c2ncc3ncnc(Nc4ccc(Oc5ccn6ncnc6c5)c(C)c4F)c3n2)[C@H](C)[C@@H]1C` (relative stereo) [Example 40] returned an IC50 below 100 nM.
In turn, `C=CC(=O)N1CCN(c2ncc3ncnc(Nc4ccc(Oc5ccn6ncnc6c5)c(C)c4F)c3n2)C[C@H]1C` [Example 32] showed an IC50 below 100 nM.

For orientation: IC50 means the concentration at which inhibition is half-maximal. A higher IC50 goes with weaker potency.
